Reference: patent US20090325920A1, “METHODS FOR THE TREATMENT OF A TRAUMATIC CENTRAL NERVOUS SYSTEM INJURY” (priority 2005, published 2009)

System: adults with blunt TBI, Glasgow Coma Scale score 4-12
Experiment: Phase II randomized placebo-controlled trial in acute TBI: signals of activity, 30-day outcomes (Example 3)
Assay type: in vivo, human
Settings: for All cause mortality (ITT): intention to treat, n=77
Description: In addition to monitoring subjects for signs of harm, we hoped to detect signals of activity. […] For this preliminary study, our primary outcome of interest was Glasgow Outcome Scale Extended (GOSE) 30 days post-injury. […] Thirty days following each injury event, we assessed each patient's Glasgow Outcome Score Extended (GOSE) and Disability Rating Scale (DRS). Patients who were severely impaired were classified as “not testable”-a surrogate marker for a poor outcome. Reliability codes were used to record reasons for non-administration of a particular measure, such as physical impairment (e.g., hemiparesis) cognitive impairment (e.g., could not understand instructions), or intoxication. One-year outcomes will be reported at a later date. […] Our secondary aim was to look for signs of drug activity by assessing several measures of outcome. Our a priori primary measure of outcome was the Glasgow Outcome Scale-Extended ([…] et al. (1998) Journal of Neurotrauma 15(8):587-597). […] (1987) Journal of Neurosurgery 67(6):832-840) and 5) the Disability Rating Scale (DRS) (Hall et al. […] Variables determined to be independently associated with all-cause mortality or CNS related-death, such as iGCS (dichotomized into moderate versus severe), injury severity score and Marshall CT score were incorporated in a stepwise logistic regression analyses. Because GCS often fluctuates during the first few hours after injury, additional stepwise logistic regressions were performed using dichotomized GCS 1 day post-injury.

[1] = 30 days post injury, treatment received
[2] = Index GCS = 9-12, 30 days post injury

CC(=O)[C@H]1CC[C@H]2[C@@H]3CCC4=CC(=O)CC[C@]4(C)[C@H]3CC[C@]12C [progesterone, pregn-4-ene-3,20-dione]
Dichotomized Glasgow Outcome Score - Extended: Dead to Upper Severe (30 days post injury): 70.0%
Dichotomized Glasgow Outcome Score - Extended: good or moderate recovery (30 days post injury): 30.0%
Glasgow Outcome Score - Extended: Dead (30 days post injury): 14.2%
Glasgow Outcome Score - Extended: Lower Good (30 days post injury): 4.3%
Glasgow Outcome Score - Extended: Lower Moderate (30 days post injury): 11.4%
Glasgow Outcome Score - Extended: Lower Severe (30 days post injury): 40.0%
Glasgow Outcome Score - Extended: Upper Good (30 days post injury): 4.3%
Glasgow Outcome Score - Extended: Upper Moderate (30 days post injury): 10.0%
Glasgow Outcome Score - Extended: Upper Severe (30 days post injury): 8.6%
Glasgow Outcome Score - Extended: Vegetative State (30 days post injury): 7.1%
All cause mortality (ITT) (30 days post injury): 13%
All cause mortality (ITT) (30 days post injury, listed as Progesterone): 13.0%
All cause mortality (TR) [1]: 11.8%
Neurological deaths [1]: 5.3%
Non-neurological deaths [1]: 6.6%
dichotomized GOSE versus placebo (30 days post-injury): did not significantly differ between groups
Disability Rating Score: Total DRS, mean (Index GCS = 4-8, 30 days post injury): 10.7
Disability Rating Score: Employ, mean [2]: 1.8
Disability Rating Score: Function, mean [2]: 1.5
Disability Rating Score: Total DRS, mean [2]: 5
Duration of Coma, mean (Initial GCS = 4-8): 10.1 days
Duration of Post-Traumatic Amnesia, mean (Initial GCS = 4-8): 18.6 days
Duration of Coma, mean (Initial GCS = 4-8, listed as Progesterone): 10.11 days
Duration of Coma, mean (Initial GCS = 9-12): 4.1 days
Duration of Post-Traumatic Amnesia, mean (Initial GCS = 9-12): 10.7 days
trend of mean intracranial pressure levels (first 4 days post-injury, subjects with monitors in place, not statistically significant): remained stable
Intracranial Pressure, mean (infusion day 0): 16.0 mm Hg
Intracranial Pressure, mean (infusion day 1): 17.1 mm Hg
Intracranial Pressure, mean (infusion day 2): 15.4 mm Hg
Intracranial Pressure, mean (infusion day 3): 16.0 mm Hg
Intracranial Pressure, mean (infusion day 4): 17.7 mm Hg
DRS scores versus placebo (moderately brain-injured patients, 30 days post-injury): significantly better DRS scores
Survived > 30 days (treatment received): 88.2%
